Reference: PubChem BioAssay AID2060504 (Molecular Pharmacology Branch, DTP, NCI, 2025)
“And” between values parts separate entries of the source, which are not always exact repeats. Equal entries are not always repeated. One block for each compound: values may come before it.

System: 636577-100-R-J1-PDC complex spheroid viability
Test: Anticancer human tumor 636577-100-R-J1-PDC patient-derived endometrial adenocarcinoma cell line growth inhibition [GQUAD]
Conditions: for viability, T/C: stronger effect = lower value
Excerpt: DNA G-quadruplex Stabilizer Agents in Combinations in Complex Spheroids
A high-throughput screen of multi-cell type tumor spheroids was designed to identify active combinations of DNA G-quadruplex stabilizer agents and targeted small molecules. Complex spheroids include a stromal component modeled by human endothelial cells (HUVEC) and fibroblasts modeled by human mesenchymal stem cells (MSCs). The concentration ranges selected for each drug and investigational agent were based upon clinically achievable concentrations if the clinical Cmax of the agent was known.
Compounds. The drugs and investigational agents: pidnarulex (CX-5461; NSC782164), APTO-253 (NSC789042), BRACO-19 (NSC847499), peposertib (NSC802822), ceralasertib (NSC780249), elimusertib (NSC800525), camonsertib (NSC841442), AZD-1390 (NSC803789), olaparib (NSC753686), talazoparib (NSC767125), ART-558 (NSC835418), sotorasib (NSC818433), MRTX-1133 (NSC836407), SN-38 (NSC673596), topotecan (NSC609699), etoposide (NSC141540), doxorubicin (NSC123127), gemcitabine (NSC613327), 5-fluorouracil (NSC19893), paclitaxel (NSC125973), vemurafenib (NSC761431), panobinostat (NSC761190), R-306465 (JNJ-16241199; NSC773264), adavosertib (NSC754352), TP-3654 (NSC805149), carboplatin (NSC241240), KSQ-4279 (NSC840948), and staurosporine (NSC755774) were obtained from the National Cancer Institute (NCI) Developmental Therapeutics Program Chemical Repository (34). The FDA-approved anticancer drug set is available from the NCI Developmental Therapeutics Program. […] The stock solutions were prepared in dimethyl sulfoxide (DMSO, Sigma-Aldrich, St. Louis, MO, cat. D2650) at 800-fold the tested concentration and stored at -70 degrees C prior to their use. All drugs and investigational agents were tested over a range starting from a high concentration at or near the clinical Cmax and decreasing in half-log increments. If the clinical Cmax for an agent had not been determined, the highest concentration tested was 10 microM.
2.3 Cell Culture. All cells were maintained in an incubator at 37 degrees C and 5% CO2 with 95% humidity. The PDC lines were cultured according to standard operating procedures established by the NCI PDMR. All PDCs were thawed and cultured in Matrigel-coated flasks prepared with a working solution of 1X Ham's F-12 nutrient mix, without supplementation (Invitrogen, cat. 11765054), 100 U/mL penicillin-streptomycin (Invitrogen, cat. 15140122), and 2.5% Matrigel (Corning Inc., cat. 354248) for the first three passages. The 857933-349-R-J2-PDC line was cultured in 6C/Colon 1B media, which includes advanced DMEM/F-12 (Thermo Fisher Scientific, cat. 12634028), 10 mM HEPES (Thermo Fisher Scientific, cat. 15630080), 1X GlutaMAX supplement (Thermo Fisher Scientific, cat. 35050061), 0.1 mg/mL primocin (InvivoGen, cat. ant-pm-2), 10% defined fetal bovine serum, heat inactivated (HyClone Laboratories Inc., cat. SH30070.03HI), 50% L-WRN conditioned media (ATCC, cat. CRL-3276), 1.25 mM N-Acetyl-L-cysteine (Sigma-Aldrich, cat. A9165), 10 mM nicotinamide (Sigma-Aldrich, cat. N0636), 1X B-27 supplement (Thermo Fisher Scientific, cat. 17504044), 1X N-2 supplement (Thermo Fisher Scientific, cat. 17502048), 10 microM Y-27632 dihydrochloride (Tocris Bioscience, cat. 1254), and 50 ng/mL human EGF recombinant protein (Thermo Fisher Scientific, cat. PHG0311). The 485176-168-R4-J1-PDC line was cultured in Panc media, which includes all 6C/Colon 1B media components plus 100 ng/mL human FGF-10 (Thermo Fisher Scientific, cat. 100-26), 500 nM SB-431542 (Selleckchem, cat. S1067), and gastrin (Tocris, cat. 3006).
[…]
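Note: viability read after seven days of drug exposure.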
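Throughout, for viability, T/C: luminescence signal used as a proxy for viable cells; 100% = DMSO vehicle control wells.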

- IC50 (curve of compound): > 10000 nM and 9350 nM
SMILES: Cc1cccc(N(C)C(=O)C2C(O)CCN2c2nc(C)cc(C(F)(F)F)c2C#N)c1 (stereo unspecified)
- viability, T/C (compound 0.0316 µM): 55.9% and 99.9% and 91.4%
- viability, T/C (compound 0.1 µM): 87% and 96.7% and 33.3%
- viability, T/C (compound 0.316 µM): 95.6% and 94.5% and 96%
- viability, T/C (compound 1 µM): 75.2% and 81.8% and 94.4%
- viability, T/C (compound 3.16 µM): 76% and 84.7% and 55.7%
- viability, T/C (compound 10 µM): 74.4% and 87.5% and 49.5%

- IC50 (curve of compound): 81.9 nM and 76.2 nM and 64 nM
SMILES: COc1cc(C2c3cc4c(cc3C(OC3OC5COC(C)OC5C(O)C3O)C3COC(=O)C23)OCO4)cc(OC)c1O (stereo unspecified)
- viability, T/C (compound 0.0316 µM): 80.7% and 81.6% and 73.5%
- viability, T/C (compound 0.1 µM): 43.7% and 40.4% and 34.9%
- viability, T/C (compound 0.316 µM): 24.3% and 21.7% and 21.6%
- viability, T/C (compound 1 µM): 18.6% and 19% and 17.9%
- viability, T/C (compound 3.16 µM): 15.4% and 13.9% and 16.5%
- viability, T/C (compound 10 µM): 13% and 12.7% and 13.3%

SMILES: COc1cc(C2c3cc4c(cc3C(OC3OC5COC(C)OC5C(O)C3O)C3COC(=O)C23)OCO4)cc(OC)c1O (stereo unspecified) + Cc1[nH]c2ccc(F)cc2c1-c1nc2c3cccnc3c3ncccc3c2[nH]1
- IC50 (curve of first compound, second compound 0.0316 µM): 86.7 nM
- IC50 (curve of first compound, second compound 0.1 µM): 68.8 nM
- IC50 (curve of first compound, second compound 0.316 µM): 85.8 nM
- IC50 (curve of first compound, second compound 1 µM): 58.8 nM
- IC50 (curve of first compound, second compound 3.16 µM): < 31.6 nM
- IC50 (curve of first compound, second compound 10 µM): 36.8 nM
- viability, T/C (second compound 0.0316 µM, first compound 0.0316 µM): 80.6%
- viability, T/C (second compound 0.0316 µM, first compound 0.1 µM): 45.6%
- viability, T/C (second compound 0.0316 µM, first compound 0.316 µM): 24.1%
- viability, T/C (second compound 0.0316 µM, first compound 1 µM): 16.1%
- viability, T/C (second compound 0.0316 µM, first compound 3.16 µM): 16%
- viability, T/C (second compound 0.0316 µM, first compound 10 µM): 14%
- viability, T/C (second compound 0.1 µM, first compound 0.0316 µM): 68.4%
- viability, T/C (second compound 0.1 µM, first compound 0.1 µM): 41.2%
- viability, T/C (second compound 0.1 µM, first compound 0.316 µM): 23.4%
- viability, T/C (second compound 0.1 µM, first compound 1 µM): 17.1%
- viability, T/C (second compound 0.1 µM, first compound 3.16 µM): 17.5%
- viability, T/C (second compound 0.1 µM, first compound 10 µM): 13.9%
- viability, T/C (second compound 0.316 µM, first compound 0.0316 µM): 71.5%
- viability, T/C (second compound 0.316 µM, first compound 0.1 µM): 46.7%
- viability, T/C (second compound 0.316 µM, first compound 0.316 µM): 21.1%
- viability, T/C (second compound 0.316 µM, first compound 1 µM): 16.8%
- viability, T/C (second compound 0.316 µM, first compound 3.16 µM): 16.8%
- viability, T/C (second compound 0.316 µM, first compound 10 µM): 14.2%
- viability, T/C (second compound 1 µM, first compound 0.0316 µM): 65.3%
- viability, T/C (second compound 1 µM, first compound 0.1 µM): 37.2%
- viability, T/C (second compound 1 µM, first compound 0.316 µM): 21.4%
- viability, T/C (second compound 1 µM, first compound 1 µM): 19.9%
- viability, T/C (second compound 1 µM, first compound 3.16 µM): 18%
- viability, T/C (second compound 1 µM, first compound 10 µM): 13.8%
- viability, T/C (second compound 3.16 µM, first compound 0.0316 µM): 30%
- viability, T/C (second compound 3.16 µM, first compound 0.1 µM): 23.9%
- viability, T/C (second compound 3.16 µM, first compound 0.316 µM): 21%
- viability, T/C (second compound 3.16 µM, first compound 1 µM): 18.5%
- viability, T/C (second compound 3.16 µM, first compound 3.16 µM): 17.8%
- viability, T/C (second compound 3.16 µM, first compound 10 µM): 14.1%
- viability, T/C (second compound 10 µM, first compound 0.0316 µM): 52.5%
- viability, T/C (second compound 10 µM, first compound 0.1 µM): 34.6%
- viability, T/C (second compound 10 µM, first compound 0.316 µM): 21.9%
- viability, T/C (second compound 10 µM, first compound 1 µM): 19.1%
- viability, T/C (second compound 10 µM, first compound 3.16 µM): 18.3%
- viability, T/C (second compound 10 µM, first compound 10 µM): 15.1%
